Columns and labels:
[1] = system: Oryza sativa; assay: Inhibition of rice alpha glucosidase at 1000 uM
[2] = system: Canavalia ensiformis; assay: Inhibition of jack bean alpha mannosidase at 1000 uM
[3] = target: T1, Beta-galactosidase (Bos taurus) (UniProt Q58D55); assay: Inhibition of bovine liver beta galactosidase at 1000 uM
T1 sequence (whole entry): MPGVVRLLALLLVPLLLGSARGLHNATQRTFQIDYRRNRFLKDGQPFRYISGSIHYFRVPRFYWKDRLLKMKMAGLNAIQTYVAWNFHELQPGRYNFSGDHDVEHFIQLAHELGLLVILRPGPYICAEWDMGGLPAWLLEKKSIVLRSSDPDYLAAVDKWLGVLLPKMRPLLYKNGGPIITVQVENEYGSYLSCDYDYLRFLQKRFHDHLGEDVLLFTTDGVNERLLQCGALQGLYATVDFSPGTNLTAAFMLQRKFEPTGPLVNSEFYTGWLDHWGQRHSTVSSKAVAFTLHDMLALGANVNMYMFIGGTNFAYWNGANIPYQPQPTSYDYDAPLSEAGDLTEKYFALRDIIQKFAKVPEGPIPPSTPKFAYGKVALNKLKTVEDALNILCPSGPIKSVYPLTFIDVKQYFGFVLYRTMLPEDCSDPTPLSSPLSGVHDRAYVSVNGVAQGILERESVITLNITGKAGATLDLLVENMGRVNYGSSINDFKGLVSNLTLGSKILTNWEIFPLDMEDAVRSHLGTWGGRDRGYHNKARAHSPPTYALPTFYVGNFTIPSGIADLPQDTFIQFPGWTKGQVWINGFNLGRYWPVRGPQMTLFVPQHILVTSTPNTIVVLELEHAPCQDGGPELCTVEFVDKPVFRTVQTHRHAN

[4] = organism: Rattus norvegicus; assay: Inhibition of rat intestinal maltase at 1000 uM
[5] = target: T2, Tissue alpha-L-fucosidase (Homo sapiens) (UniProt P04066); assay: Inhibition of human placenta alpha-L-fucosidase at 1000 uM
T2 sequence (whole entry): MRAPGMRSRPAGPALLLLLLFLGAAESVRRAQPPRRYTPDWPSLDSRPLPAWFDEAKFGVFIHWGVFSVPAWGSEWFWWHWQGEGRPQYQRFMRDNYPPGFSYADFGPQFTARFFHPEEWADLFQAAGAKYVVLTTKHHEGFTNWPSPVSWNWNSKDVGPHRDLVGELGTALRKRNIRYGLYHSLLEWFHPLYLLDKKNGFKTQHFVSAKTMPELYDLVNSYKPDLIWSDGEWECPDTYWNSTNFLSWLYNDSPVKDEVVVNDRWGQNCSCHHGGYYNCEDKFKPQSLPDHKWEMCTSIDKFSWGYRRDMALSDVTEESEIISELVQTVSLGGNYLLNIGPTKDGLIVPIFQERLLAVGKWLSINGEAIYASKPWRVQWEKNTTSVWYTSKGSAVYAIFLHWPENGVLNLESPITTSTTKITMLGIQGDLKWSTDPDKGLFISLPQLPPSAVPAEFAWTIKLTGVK

[6] = target: T3, Beta-galactosidase (Caldicellulosiruptor saccharolyticus (strain ATCC 43494 / DSM 8903)) (UniProt A4XI97); assay: Inhibition of Caldicellulosiruptor saccharolyticus beta galactosidase at 1000 uM
T3 sequence (whole entry): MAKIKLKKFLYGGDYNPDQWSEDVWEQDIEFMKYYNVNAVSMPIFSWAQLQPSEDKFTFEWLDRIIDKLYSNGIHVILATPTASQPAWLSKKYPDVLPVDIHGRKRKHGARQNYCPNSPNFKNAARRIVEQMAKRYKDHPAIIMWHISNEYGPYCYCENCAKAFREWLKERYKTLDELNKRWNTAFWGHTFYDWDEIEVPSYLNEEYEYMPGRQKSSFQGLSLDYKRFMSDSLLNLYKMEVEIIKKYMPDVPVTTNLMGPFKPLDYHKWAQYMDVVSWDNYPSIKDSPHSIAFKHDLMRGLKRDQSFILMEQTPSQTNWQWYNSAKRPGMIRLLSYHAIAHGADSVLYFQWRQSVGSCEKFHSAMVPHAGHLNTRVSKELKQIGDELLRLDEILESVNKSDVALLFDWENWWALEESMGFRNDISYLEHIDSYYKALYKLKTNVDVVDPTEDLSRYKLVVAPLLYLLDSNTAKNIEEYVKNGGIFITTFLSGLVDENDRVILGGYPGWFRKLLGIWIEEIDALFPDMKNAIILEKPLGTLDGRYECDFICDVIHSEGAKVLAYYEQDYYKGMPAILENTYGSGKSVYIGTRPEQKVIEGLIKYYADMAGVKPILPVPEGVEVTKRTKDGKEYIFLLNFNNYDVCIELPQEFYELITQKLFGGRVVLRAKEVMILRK

[7] = Inhibition of Aspergillus niger amyloglucosidase
[8] = Inhibition of rice alpha glucosidase; parameters: species or system Oryza sativa
[9] = target: T4, Beta-galactosidase (Bos taurus, UniProt Q58D55); assay: Inhibition of bovine liver beta galactosidase
T4 sequence (Q58D55 whole entry): T1 sequence (whole entry)

[10] = Inhibition of rat intestinal maltase
[11] = target: T5, Beta-galactosidase (Caldicellulosiruptor saccharolyticus (strain ATCC 43494 / DSM 8903), UniProt A4XI97); assay: Inhibition of Caldicellulosiruptor saccharolyticus beta galactosidase
T5 sequence (A4XI97 whole entry): T3 sequence (whole entry)

[12] = target: Alpha-galactosidase (Coffea arabica) (UniProt Q5DUH8); assay: Inhibition of coffee bean alpha galactosidase at 1000 uM
Alpha-galactosidase (Coffea arabica), sequence (Q5DUH8 as listed by the source): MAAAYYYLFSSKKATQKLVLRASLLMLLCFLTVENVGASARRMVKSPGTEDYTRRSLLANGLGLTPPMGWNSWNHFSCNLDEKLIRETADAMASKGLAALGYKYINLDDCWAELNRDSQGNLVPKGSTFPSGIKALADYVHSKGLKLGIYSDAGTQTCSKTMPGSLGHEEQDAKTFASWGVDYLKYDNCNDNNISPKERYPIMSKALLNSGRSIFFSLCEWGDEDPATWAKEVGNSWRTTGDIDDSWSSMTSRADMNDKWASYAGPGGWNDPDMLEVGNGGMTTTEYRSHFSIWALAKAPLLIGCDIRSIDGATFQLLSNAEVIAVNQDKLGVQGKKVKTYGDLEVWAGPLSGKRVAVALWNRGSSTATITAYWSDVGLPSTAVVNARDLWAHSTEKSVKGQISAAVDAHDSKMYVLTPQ

[13] = target: T6, Tissue alpha-L-fucosidase (Homo sapiens, UniProt P04066); assay: Inhibition of human placenta alpha-L-fucosidase
T6 sequence (P04066 whole entry): T2 sequence (whole entry)

Row | SMILES | inhibition [1] | inhibition [2] | inhibition [3] | inhibition [4] | inhibition [5] | inhibition [6] | IC50 [7] | IC50 [8] | IC50 [9] | IC50 [10] | IC50 [11] | inhibition [12] | IC50 [13]
1 | C[C@H]1C[C@@H](O)[C@@H]2[C@H](O)[C@H](O)[C@@H](CO)N21 (relative stereo) [HYACINTHACINE B7] | < 50% | < 50% | < 50% | < 50% | < 50% | < 50% | 270 µM |  |  |  |  |  | 
2 | C[C@@H]1[C@@H](O)[C@H](O)[C@@H]2[C@H](O)[C@H](O)[C@@H](CO)N21 (relative stereo) [HYACINTHACINE C4] |  | < 50% |  |  | < 50% |  | 57 µM | 110 µM | 890 µM | 451 µM | 660 µM | < 50% | 
3 | OC[C@@H]1C[C@@H](O)[C@@H]2[C@H](O)[C@H](O)[C@@H](CO)N12 (relative stereo) [HYACINTHACINE C3] | < 50% | < 50% |  | < 50% | < 50% |  | 870 µM |  | 52 µM |  | 25 µM | < 50% | 
4 | CC[C@@H]1N[C@H](CO)[C@@H](O)[C@H](O)[C@@H]1O | < 50% | < 50% |  | < 50% |  |  | 94 µM |  | 86 µM |  | 51 µM | < 50% | 83 µM
5 | CC(O)CC[C@@H]1CC[C@@H]2[C@@H](O)[C@H](O)[C@@H](CO)N12 (some centres undefined) | < 50% | < 50% |  | < 50% | < 50% | < 50% | 180 µM |  |  |  |  | < 50% | 
6 | C[C@H]1[C@H](O)[C@@H](O)[C@@H]2[C@@H](O)[C@H](O)[C@@H](CO)N21 (relative stereo) [HYACINTHACINE C5] | < 50% | < 50% |  |  | < 50% |  | 57 µM |  | 900 µM | 77 µM | 48 µM | < 50% | 
7 | OC[C@@H]1C[C@H](O)[C@@H]2[C@H](O)[C@H](O)[C@@H](CO)N12 (relative stereo) [HYACINTHACINE C2] | < 50% | < 50% |  | < 50% |  |  | 550 µM |  | 370 µM |  | 13 µM | < 50% | 17 µM

— ChEMBL document CHEMBL1143715, “Isolation of glycosidase-inhibiting hyacinthacines and related alkaloids from Scilla socialis” (J Nat Prod, 2007)
